Type in all cases: in vivo
Assay [1] deals with Green Peach Aphid ("GPA") (Myzus persicae), wingless adult and nymph stages. In words: Bioassay on green peach aphid (GPA), foliar spray on infested cabbage seedlings. The settings on record: Myzus persicae, foliar, 72 h, read-out: GPA (Biological Results, rating). On the procedure: Certain molecules disclosed in this document were tested against GPA using procedures described in the following example. In the reporting of the results, the “GPA Rating Table” was used (See Table Section).
Cabbage seedlings grown in 3-inch pots, with 2-3 small (3-5 cm) true leaves, were used as test substrate. The seedlings were infested with 20-50 GPA (wingless adult and nymph stages) one day prior to chemical application. Four pots with individual seedlings were used for each treatment. Test compounds (2 mg) were dissolved in 2 mL of acetone/methanol (1:1) solvent, forming stock solutions of 1000 ppm test compound. […] A hand-held aspirator-type sprayer was used for spraying a solution to both sides of […] leaves until runoff. Reference plants (solvent check) were sprayed with the diluent only containing 20% by volume of acetone/methanol (1:1) solvent. Treated plants were held in a holding room for three days at approximately 25° C. and ambient relative humidity (RH) prior to grading. Evaluation was conducted by counting the number of live aphids per plant under a microscope.
Corrected % Control=100*(X−Y)/X • where • X=No. of live aphids on solvent check plants and • Y=No. of live aphids on treated plants
The results are indicated in the table entitled “Table ABC: Biological Results” (See Table Section).

The subject of assay [2] is Cabbage Looper (Trichoplusia ni) ("CL"), second instar larvae. The assay can be described thus: Bioassay on cabbage looper (CL), 128-well diet tray assay. The conditions noted are these: Trichoplusia ni, read-out: CL (Biological Results, rating). A digest of the protocol:
(§1)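 Second-instar larvae on diet in 128-well trays, covered and held at 25° C, 14:10 light-dark, for five to seven days. Percent mortality scored per well and averaged over eight wells; activity reported as a rating category.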

Assay [3] deals with Beet Armyworm (Spodoptera exigua) ("BAW"), second instar larvae. The assay can be described thus: Bioassay on beet armyworm (BAW), 128-well diet tray assay. The settings on record: Spodoptera exigua, read-out: BAW (Biological Results, rating). A digest of the protocol:
as §1

Structures are written as SMILES.

This is an account of results in patent publication US20230077362A1 (CORTEVA AGRISCIENCE LLC, priority 2019, published 2023).

Take `Cc1ccc(C(C)C)c(N2C(=O)CS/C2=N\C(=O)Nc2ccc(-c3ncn(-c4cccc(OC(F)(F)F)c4)n3)cc2C)c1` [Compound J135, (Z)-1-(3-(2-Isopropyl-5-methylphenyl)-4-oxothiazolidin-2-ylidene)-3-(2-methyl-4-(1-(3-(trifluoromethoxy)phenyl)-1H-1,2,4-triazol-3-yl)phenyl)urea]: in assay [1], the pest or weed control at 200 µg/mL is 0 to 80%. The pest or weed control at 50 µg/cm2 in assay [2] and in assay [3] was 50 to 100% in each case.
Consider `COc1ccc(C(C)C)c(N2C(=O)CS/C2=N\C(=O)Nc2ccc(-c3ncn(-c4cccc(OC(F)(F)F)c4)n3)cc2C)c1` [Compound J136, (Z)-1-(3-(2-Isopropyl-5-methoxyphenyl)-4-oxothiazolidin-2-ylidene)-3-(2-methyl-4-(1-(3-(trifluoromethoxy)phenyl)-1H-1,2,4-triazol-3-yl)phenyl)urea], for which, in assay [1], the pest or weed control at 200 µg/mL was 0 to 80%. For the same compound, the pest or weed control at 50 µg/cm2 in assay [2] and in assay [3] was 50 to 100% each time.
With `Cc1cc(-c2ncn(-c3cccc(OC(F)(F)F)c3)n2)ccc1NC(=O)/N=C1\SCC(=O)N1c1cc(N(C)C)ccc1C(C)C` [Compound J137, (Z)-1-(3-(5-(Dimethylamino)-2-isopropylphenyl)-4-oxothiazolidin-2-ylidene)-3-(2-methyl-4-(1-(3-(trifluoromethoxy)phenyl)-1H-1,2,4-triazol-3-yl)phenyl)urea], the pest or weed control at 200 µg/mL in assay [1] was 0 to 80%. Further, the pest or weed control at 50 µg/cm2 in assay [2] and in assay [3] was 50 to 100% throughout.
For `Cc1ccc(OCCC(F)(F)F)c(N2C(=O)CS/C2=N\C(=O)Nc2ccc(-c3ncn(-c4cccc(OC(F)(F)F)c4)n3)cc2C)c1` [Compound J138, (Z)-1-(3-(5-Methyl-2-(3,3,3-trifluoropropoxy)phenyl)-4-oxothiazolidin-2-ylidene)-3-(2-methyl-4-(1-(3-(trifluoromethoxy)phenyl)-1H-1,2,4-triazol-3-yl)phenyl)urea], the pest or weed control at 200 µg/mL in assay [1] was in the range of 0 to 80%. Further, the pest or weed control at 50 µg/cm2 in assay [2] and in assay [3] was 50 to 100% throughout.
For the compound `Cc1ccc(COCC(F)(F)F)c(N2C(=O)CS/C2=N\C(=O)Nc2ccc(-c3ncn(-c4ccc(OC(F)(F)F)cc4)n3)cc2C)c1` [Compound J139, (Z)-1-(3-(5-Methyl-2-((2,2,2-trifluoroethoxy)methyl)phenyl)-4-oxothiazolidin-2-ylidene)-3-(2-methyl-4-(1-(4-(trifluoromethoxy)phenyl)-1H-1,2,4-triazol-3-yl)phenyl)urea], the pest or weed control at 200 µg/mL in assay [1] fell in the range of 0 to 80%. Further, the pest or weed control at 50 µg/cm2 in assay [2] and in assay [3] was 50 to 100% in each case.
In the case of `CCOC(C)c1ccc(C)cc1N1C(=O)CS/C1=N\C(=O)Nc1ccc(-c2ncn(-c3ccc(OC(F)(F)F)cc3)n2)cc1C` (stereo not drawn) [Compound J141, (Z)-1-(3-(2-(1-Ethoxyethyl)-5-methylphenyl)-4-oxothiazolidin-2-ylidene)-3-(2-methyl-4-(1-(4-(trifluoromethoxy)phenyl)-1H-1,2,4-triazol-3-yl)phenyl)urea], the pest or weed control at 200 µg/mL in assay [1] fell in the range of 0 to 80%. Also, the pest or weed control at 50 µg/cm2 in assay [2] and in assay [3] was 50 to 100% in each case.
In the case of `Cc1ccc(OCCC(F)(F)F)c(N2C(=O)CS/C2=N\C(=O)Nc2ccc(-c3ncn(-c4cccc(C(F)(F)F)c4)n3)cc2F)c1` [Compound J142, (Z)-1-(2-Fluoro-4-(1-(3-(trifluoromethyl)phenyl)-1H-1,2,4-triazol-3-yl)phenyl)-3-(3-(5-methyl-2-(3,3,3-trifluoropropoxy)phenyl)-4-oxothiazolidin-2-ylidene)urea], the pest or weed control at 200 µg/mL in assay [1] lay in the range of 0 to 80%. Moreover, the pest or weed control at 50 µg/cm2 in assay [2] and in assay [3] was 50 to 100% throughout.
`Cc1ccc(C(C)C)c(N2C(=O)CS/C2=N\C(=O)Nc2ccc(-c3ncn(-c4cccc(OC(F)(F)F)c4)n3)cc2F)c1` [Compound J143, (Z)-1-(2-Fluoro-4-(1-(3-(trifluoromethoxy)phenyl)-1H-1,2,4-triazol-3-yl)phenyl)-3-(3-(2-isopropyl-5-methylphenyl)-4-oxothiazolidin-2-ylidene)urea]: the pest or weed control at 200 µg/mL in assay [1] is 0 to 80%. In addition, the pest or weed control at 50 µg/cm2 in assay [2] and in assay [3] was 50 to 100% each time.
For the compound `COc1ccc(-n2cnc(-c3ccc(NC(=O)/N=C4\SCC(=O)N4c4cc(OC)ccc4C(C)C)c(F)c3)n2)cc1` [Compound J145, (Z)-1-(2-Fluoro-4-(1-(4-methoxyphenyl)-1H-1,2,4-triazol-3-yl)phenyl)-3-(3-(2-isopropyl-5-methoxyphenyl)-4-oxothiazolidin-2-ylidene)urea], the pest or weed control at 200 µg/mL in assay [1] lay in the range of 0 to 80%. In addition, the pest or weed control at 50 µg/cm2 in assay [2] and in assay [3] was 50 to 100% in each case.
`COc1ccc(-n2cnc(-c3ccc(NC(=O)/N=C4\SCC(=O)N4c4cc(N(C)C)ccc4C(C)C)c(F)c3)n2)cc1` [Compound J146, (Z)-1-(3-(5-(Dimethylamino)-2-isopropylphenyl)-4-oxothiazolidin-2-ylidene)-3-(2-fluoro-4-(1-(4-methoxyphenyl)-1H-1,2,4-triazol-3-yl)phenyl)urea]: the pest or weed control at 200 µg/mL in assay [1] was in the range of 0 to 80%. In addition, the pest or weed control at 50 µg/cm2 in assay [2] and in assay [3] was 50 to 100% throughout.
On to `Cc1ccc(-n2cnc(-c3ccc(NC(=O)/N=C4\SCC(=O)N4c4cc(C)ccc4C(C)C)c(F)c3)n2)cc1` [Compound J148, (Z)-1-(2-Fluoro-4-(1-(p-tolyl)-1H-1,2,4-triazol-3-yl)phenyl)-3-(3-(2-isopropyl-5-methylphenyl)-4-oxothiazolidin-2-ylidene)urea], for which the pest or weed control at 200 µg/mL in assay [1] was in the range of 0 to 80%. For the same compound, the pest or weed control at 50 µg/cm2 in assay [2] and in assay [3] was 50 to 100% each time.
Consider `COc1ccc(C(C)C)c(N2C(=O)CS/C2=N\C(=O)Nc2ccc(-c3ncn(-c4ccc(C)cc4)n3)cc2F)c1` [Compound J149, (Z)-1-(2-Fluoro-4-(1-(p-tolyl)-1H-1,2,4-triazol-3-yl)phenyl)-3-(3-(2-isopropyl-5-methoxyphenyl)-4-oxothiazolidin-2-ylidene)urea], for which, in assay [1], the pest or weed control at 200 µg/mL lay in the range of 0 to 80%. In addition, the pest or weed control at 50 µg/cm2 in assay [2] and in assay [3] was 50 to 100% throughout.
Consider `Cc1ccc(-n2cnc(-c3ccc(NC(=O)/N=C4\SCC(=O)N4c4cc(C)ccc4OCCC(F)(F)F)c(F)c3)n2)cc1` [Compound J151, (Z)-1-(2-Fluoro-4-(1-(p-tolyl)-1H-1,2,4-triazol-3-yl)phenyl)-3-(3-(5-methyl-2-(3,3,3-trifluoropropoxy)phenyl)-4-oxothiazolidin-2-ylidene)urea], for which the pest or weed control at 200 µg/mL in assay [1] was in the range of 0 to 80%. Moreover, the pest or weed control at 50 µg/cm2 in assay [2] and in assay [3] was 50 to 100% throughout.
As to `COc1ccc(C(C)C)c(N2C(=O)CS/C2=N\C(=O)Nc2ccc(-c3ncn(-c4cccc(C(F)(F)F)c4)n3)cc2F)c1` [Compound J152, (Z)-1-(2-Fluoro-4-(1-(3-(trifluoromethyl)phenyl)-1H-1,2,4-triazol-3-yl)phenyl)-3-(3-(2-isopropyl-5-methoxyphenyl)-4-oxothiazolidin-2-ylidene)urea], the pest or weed control at 200 µg/mL in assay [1] was in the range of 0 to 80%. Also, the pest or weed control at 50 µg/cm2 in assay [2] and in assay [3] was 50 to 100% in each case.
For the compound `CC(C)c1ccc(N(C)C)cc1N1C(=O)CS/C1=N\C(=O)Nc1ccc(-c2ncn(-c3cccc(C(F)(F)F)c3)n2)cc1F` [Compound J153, (Z)-1-(3-(5-(Dimethylamino)-2-isopropylphenyl)-4-oxothiazolidin-2-ylidene)-3-(2-fluoro-4-(1-(3-(trifluoromethyl)phenyl)-1H-1,2,4-triazol-3-yl)phenyl)urea], the pest or weed control at 200 µg/mL in assay [1] fell in the range of 0 to 80%. The pest or weed control at 50 µg/cm2 in assay [2] and in assay [3] was 50 to 100% throughout.
`COc1ccc(C(C)C)c(N2C(=O)CS/C2=N\C(=O)Nc2ccc(-c3ncn(-c4cccc(OC(F)(F)F)c4)n3)cc2F)c1` [Compound J154, (Z)-1-(2-Fluoro-4-(1-(3-(trifluoromethoxy)phenyl)-1H-1,2,4-triazol-3-yl)phenyl)-3-(3-(2-isopropyl-5-methoxyphenyl)-4-oxothiazolidin-2-ylidene)urea]: the pest or weed control at 200 µg/mL in assay [1] lay within 0 to 80%. Besides, the pest or weed control at 50 µg/cm2 in assay [2] and in assay [3] was 50 to 100% each time.
Consider `Cc1ccc(COCC(F)(F)F)c(N2C(=O)CS/C2=N\C(=O)Nc2ccc(-c3ncn(-c4ccc(C(F)(F)F)cc4)n3)cc2F)c1` [Compound J168, (Z)-1-(2-Fluoro-4-(1-(4-(trifluoromethyl)phenyl)-1H-1,2,4-triazol-3-yl)phenyl)-3-(3-(5-methyl-2-((2,2,2-trifluoroethoxy)methyl)phenyl)-4-oxothiazolidin-2-ylidene)urea], for which the pest or weed control at 200 µg/mL in assay [1] lay in the range of 0 to 80%. The pest or weed control at 50 µg/cm2 in assay [2] and in assay [3] was 50 to 100% each time.
